# Read-outs that look alike come from different tables or passages of the source.
# What was measured:
# [1] = Solubility of compound (Ic) in lipids, surfactants and pharmaceutical cosolvents; format: physicochemical
# Description: The first step was to determine the solubility of compound(Ic) in an exhaustive series of lipids and other pharmaceutical cosolvents including vegetable oils, lipidic components, surfactants, hydrophilic components and phospholipids. The protocol of the solubility measurement is reported in the annex.
# [2] = Oral bioavailability in preclinical studies in rats; settings: rat, in vivo
# Procedure: (§1) In the first preclinical studies performed in rats, the oral administration of an aqueous suspension of a drug substance of formula (I) in 0.5% methylcellulose/0.2% tween 80 (dose at 10 mg/kg) led to a very low bioavailability (3%). […] Furthermore, this excipient (medium chain triglyceride) is known for its digestibility and regulatory acceptability. […] However, in the First in Man study, an important food effect and interindividual variability were observed: the Maximum Tolerated Dose was around 100 mg in fasted conditions, with an interindividual variability of 50%, whereas in fed conditions the Maximum Tolerated Dose was divided by 10 with a decrease of the interindividual variability to 30%.
# [3] = First in Man study (Maximum Tolerated Dose, interindividual variability, food effect); format: in vivo; settings: Miglyol 812N solution
# Procedure: as §1
# [4] = Colloidal stability and self-emulsifying properties: drug recovered after incubation in simulated GI media and filtration; format: physicochemical; settings: for Compound (Ic) recovered after filtration (2 μm) after incubation with GI media: diluted 1:50, 2 h at 37° C., theoretical concentration 200 μg/ml; for filtered fraction: aqueous solution of the drug, filter 0.45, 2 or 5 μm
# Procedure: The preparation of the mixture of Miglyol 812 (liquid), Cremophor RH40 (semisolid at room temperature, solidification point 28° C.) and Capryol 90 (liquid) needed to heat the mixture at 60° C. to obtain a homogeneous solution. In addition, the heating of the mixture could have an impact on the chemical stability of Compound Ic. Taking into account these two issues, the proposition was made to replace Cremophor RH 40 by Cremophor EL (from same chemical family). Cremophor EL, polyoxyl 35 castor oil, is a liquid surfactant: No heating is needed for the manufacturing. Two tests were performed to evaluate the interest of Cremophor EL in comparison with Cremophor RH 40: design of the pseudoternary diagram for a surfactant/co surfactant ratio of 3:1 and test of the infinite dilutability. [drawing 15] • Miglyol 812N (Condea, Batch 508) • PEG 400—Batch 5056 • Phosal 50PG (Aventis Nattermann, Batch 228188) • Labrafil 1944CS (Gattefossé, Batch 15195) • Labrasol (Gattefossé, Batch 22478) • Gelucire 44/14 (Gattefossé, Batch 14236) Microemulsions (Cremophor RH40 or EL, Capryol 90, Miglyol 812N) The weighed drug (50 mg) was dispersed in the excipient (up to 5 g), and then maintained under mechanical stirring until dissolution. […] The mass was poured in a suppository mould and kept refrigerated overnight. For the stability studies, the melted mass was poured into hard gelatine capsule (size 1) and kept refrigerated overnight. The gelatine shell was then removed. [drawing 17] The following simulated media were selected for the present experiment: • Gastric medium USP, pH 1.2 • Fasted intestinal medium, pH 6.8 (ref. Dressman et al., Pharm. Res., 1998)
# Fed intestinal medium, pH 5 (ref. Dressman et al., Pharm. Res., 1998)
# All Compound (Ic) formulations (400 mg) were diluted 1:50 in the gastric, fasted intestinal or fed intestinal medium (20 ml), then incubated during 2 hours at 37° C. under mechanical stirring (300 rpm). The drug concentration was determined by HPLC before and after filtration (0.2 or 2 μm).
# The aim of this study was to evaluate the colloidal stability and the self-emulsifying properties of the emulsion/microemulsion/micellar solution of the (Ic) formulation after incubation in the GI media. Thus, the sample was filtered onto 2 μm (able to retain oil droplets >2 μm, as well as drug crystals >2 μm) then dosed by HPLC. The filter size (2 μm) has been chosen after a screening with different filter sizes (0.45, 2 and 5 μm) tested on the aqueous solution of the drug. […] In summary, the filtered fraction was approximately 1% in the gastric medium, 2% in the fasted intestinal medium, 4.5-5.5% in the fed intestinal medium.
smiles,measurement,setting,value
CS(=O)(=O)C(=C1CN(C(c2ccc(Cl)cc2)c2ccc(Cl)cc2)C1)c1cc(F)cc(F)c1 [Compound (Ic)],solubility,"[1]; aqueous with cosolvent or surfactant or cyclodextrin, in Cremophor RH40 (POE hydrogenated castor oil), read-out: solubility",80.6 mg/mL
same,solubility,"[1]; aqueous with cosolvent or surfactant or cyclodextrin, in HP β Cyclodextrin, read-out: solubility",0.05 mg/mL
same,solubility,"[1]; aqueous with cosolvent or surfactant or cyclodextrin, in Span 20 (Sorbitan monolaurate), read-out: solubility",31.6 mg/mL
same,solubility,"[1]; aqueous with cosolvent or surfactant or cyclodextrin, in Span 85 (Sorbitan trioleate), read-out: solubility",92 mg/mL
same,solubility,"[1]; aqueous with cosolvent or surfactant or cyclodextrin, in Tween 80 (POE monooleate), read-out: solubility",50.6 mg/mL
same,solubility,[1]; in Brij 96 (POE oleyl ether),85.7 mg/g
same,solubility,[1]; in Capryol 90 (Polyethyleneglycol monocaprylate),56.6 mg/g
same,solubility,[1]; in Castor oil,16.1 mg/g
same,solubility,[1]; in Coconut oil,18.6 mg/g
same,solubility,[1]; in Cremophor RH 40 (Polyoxyl 40 hydrogenated castor oil),80.6 mg/g
same,solubility,[1]; in Crossential LN 75 (Linolenic acid),45.4 mg/g
same,solubility,[1]; in Crossential O94 (Oleic acid),19.6 mg/g
same,solubility,[1]; in Edenor C8 98-100 (Caprylic acid),75.5 mg/g
same,solubility,[1]; in Gelucire 44/14 (lauroyl macrogol-32 glycerides),90.1 mg/g
same,solubility,[1]; in Gelucire 50/13 (stearoyl macrogol-32 glycerides),78.5 mg/g
same,solubility,[1]; in Labrafil M 1944 CS (Oleic Macrogol-6 glycerides),30.3 mg/g
same,solubility,[1]; in Labrasol (Caprylocaproyl macrogol-8 glycerides),111.8 mg/g
same,solubility,[1]; in Lauroglycol (PG monolaurate),28.5 mg/g
same,solubility,[1]; in Miglyol 812 (Caprylic/capric triglycerides),37.4 mg/g
same,solubility,[1]; in Myrj 45 (POE stearate),86.9 mg/g
same,solubility,[1]; in Myvacet 9-45 (Distilled acetylated monoglycerides),54.8 mg/g
same,solubility,[1]; in Neobee M 20 (PG dicaprylate/dicaprate),47.7 mg/g
same,solubility,[1]; in Olive oil,10.9 mg/g
same,solubility,[1]; in PEG 1500 (polyethylene glycol 1500),<10 mg/g
same,solubility,"[1]; in Phosal 40 MD (Phosphatidylcholine 38 ± 1.5% in glyceryl stearate, soya oil and linoleic acid ethylester)",12.5 mg/g
same,solubility,[1]; in Phosal 50 PG (Phosphatidylcholine ≧ 50% in propylene glycol),11.7 mg/g
same,solubility,"[1]; in Phosal 50 PG (Phosphatidylcholine ≧ 50% in propylene glycol), listed as Compound Ic",11.5 mg/g
same,solubility,"[1]; in Phosal 53 MCT (Phosphatidylcholine 56 ± 3% in caprylic/capric triglycerides, alcohol, glyceryl stearate, oleic acid and ascorbyl palmitate)",25.8 mg/g
same,solubility,"[1]; in Phosal 75 SA (Phosphatidylcholine 75 ± 3% in alcohol, safflower oil, glyceryl stearate, coconut oil and ascorbyl palmitate)",<10 mg/g
same,solubility,[1]; in Phospholipon 90 (Phosphatidylcholine 93%),40 mg/g
same,solubility,[1]; in Safflower oil,14.8 mg/g
same,solubility,[1]; in Sesame oil,10.9 mg/g
same,solubility,[1]; in VitaminE TPGS (d-α-tocopheryl polyethylene glycol 1000 succinate),100 mg/g
same,solubility,"[1]; oil or lipid, in Imwitor 742 (Glyceryl mono-dicaprylate/caprate), read-out: solubility",31.2 mg/mL
same,solubility,"[1]; oil or lipid, in Imwitor 988 (Glyceryl mono-dicaprylate), read-out: solubility",41.2 mg/mL
same,solubility,"[1]; oil or lipid, in Labrafil M1944 CS (oleyl macrogol-6-glycerides), read-out: solubility",30.3 mg/mL
same,solubility,"[1]; oil or lipid, in Miglyol 812 (caprylic/capric triglyceride), read-out: solubility",35.9 mg/mL
same,solubility,"[1]; oil or lipid, in Peanut oil, read-out: solubility",7.2 mg/mL
same,solubility,"[1]; oil or lipid, in Soyabean oil, read-out: solubility",31.8 mg/mL
same,solubility,"[1]; organic solvent or mixture, in Ethanol, read-out: solubility",5.8 mg/mL
same,solubility,"[1]; organic solvent or mixture, in PEG 400 (polyethylene glycol 400), read-out: solubility",78.1 mg/mL
same,solubility,"[1]; organic solvent or mixture, in Transcutol (Diethylene glycol monoethyl ether), read-out: solubility",89.8 mg/mL
same,bioavailability,"[2]; aqueous suspension in 0.5% methylcellulose/0.2% tween 80, dose 10 mg/kg",3%
same,bioavailability,"[2]; solution of 25 mg/mL in Miglyol 812N, dose 1 mg/kg",13%
same,bioavailability,"[2]; solution of 25 mg/mL in Miglyol 812N, dose 10 mg/kg",37%
same,Maximum Tolerated Dose,[3]; fasted conditions,around 100 mg
same,interindividual variability,[3]; fasted conditions,50%
same,Maximum Tolerated Dose relative to fasted conditions,[3]; fed conditions,divided by 10
same,interindividual variability,[3]; fed conditions,30%
same,Compound (Ic) recovered after filtration (2 μm) after incubation with GI media,[4]; Fasted intestinal medium pH 6.8,4.2 µg/mL
same,Compound (Ic) recovered after filtration (2 μm) after incubation with GI media,[4]; Fed intestinal medium pH 5,8.8 µg/mL
same,Compound (Ic) recovered after filtration (2 μm) after incubation with GI media,[4]; Gastric medium,1.9 µg/mL
same,filtered fraction,[4]; fasted intestinal medium,~2%
same,filtered fraction,[4]; fed intestinal medium,4.5-5.5%
same,filtered fraction,[4]; gastric medium,approximately 1%

# — patent publication US20050037062A1, “Emulsifying systems containing azetidine derivatives” (Aventis Pharma S.A., priority 2003, published 2005)
